From a compilation of properties of binary mixtures (doi:10.1016/j.molliq.2016.04.040)

Experiment: xn = mol fraction of the nth substance listed
Conditions: 100 kPa

CC(=O)[O-].CCC[NH3+] + CN1CCCC1=O
speed of sound [m/s]
Conditions | 293.15 K | 298.15 K | 303.15 K | 308.15 K | 313.15 K | 318.15 K | 323.15 K | 328.15 K | 333.15 K
x2 = 0 | 1504.2 | 1490.7 | – | 1461.9 | 1447.5 | – | – | 1405.6 | –
x2 = 0.05 | 1506.6 | 1493.5 | – | 1464 | – | 1434.5 | 1420.4 | 1406.6 | 1392.6
x2 = 0.0978 | 1509.6 | 1495.7 | 1481.1 | 1466.8 | 1451.7 | 1436.1 | 1421.4 | 1407.6 | 1393.3
x2 = 0.1978 | 1515 | 1501 | 1485.6 | 1471.1 | – | 1439.8 | 1424.3 | 1410 | 1395.1
x2 = 0.3095 | 1522.4 | 1506.4 | 1491.6 | 1474.8 | 1459.3 | – | – | 1413.1 | 1397.7
x2 = 0.3891 | 1527.5 | 1511.4 | 1495.3 | 1479 | 1462.8 | 1446.7 | – | – | 1399.2
x2 = 0.4931 | 1533.3 | 1517 | 1500.3 | 1484.2 | 1467.1 | 1451.1 | 1433.2 | 1417.5 | 1401.1
x2 = 0.599 | 1539.9 | 1521.9 | – | 1488.3 | 1471.5 | 1453.8 | 1436.8 | 1420.2 | –
x2 = 0.7001 | 1545.8 | 1527.3 | – | 1492 | 1474.8 | – | 1439.8 | 1422.2 | 1405.1
x2 = 0.7998 | – | 1533.1 | 1515.2 | 1497.2 | – | 1461.4 | – | – | 1407.8
x2 = 0.891 | – | 1538.6 | 1519.6 | 1501.1 | 1482.7 | 1463.9 | 1445.1 | 1427.5 | 1409

CCC[NH3+].O=C[O-] + CN1CCCC1=O
speed of sound [m/s]
Conditions | 293.15 K | 298.15 K | 303.15 K | 308.15 K | 313.15 K | 318.15 K | 323.15 K | 328.15 K | 333.15 K
x2 = 0 | – | 1540.7 | – | 1519.8 | 1509.5 | 1499.2 | 1489.1 | 1479 | 1469
x2 = 0.0494 | 1556.8 | 1546 | 1535.1 | – | 1513.7 | 1503.1 | – | 1482 | 1471.6
x2 = 0.1047 | 1557.7 | 1546.3 | 1534.9 | 1523.6 | – | 1501.3 | 1490.2 | 1479.3 | 1468.4
x2 = 0.1953 | 1559.5 | 1547.5 | 1535.4 | 1523.3 | 1511.4 | 1499.5 | 1487.7 | 1475.9 | 1464.2
x2 = 0.3021 | – | 1547.4 | 1534.2 | – | 1508.1 | 1495.2 | 1482.3 | 1469.4 | 1456.6
x2 = 0.4205 | 1563.9 | – | – | 1520.9 | 1506.7 | 1492.6 | 1478.5 | 1464.5 | 1450.5
x2 = 0.5063 | 1566 | 1550.9 | 1535.7 | 1520.7 | 1505.7 | – | 1475.9 | 1461.1 | 1446.3
x2 = 0.6001 | 1565.4 | 1549.7 | 1533.7 | 1517.8 | 1501.9 | 1486.2 | – | – | 1439.1
x2 = 0.7075 | 1565 | 1548.1 | 1531.2 | 1514.3 | 1497.6 | 1480.9 | 1464.2 | 1447.5 | –
x2 = 0.7986 | – | – | 1529.2 | 1511.6 | – | 1476.8 | 1459.5 | 1442.2 | –
x2 = 0.9048 | – | 1545.7 | 1527.6 | – | 1491.4 | 1473.5 | 1455.7 | 1438 | 1420.3

CC(=O)[O-].CCC[NH3+] + O
speed of sound [m/s]
Conditions | 293.15 K | 298.15 K | 303.15 K | 308.15 K | 313.15 K | 318.15 K | 323.15 K | 328.15 K | 333.15 K
x2 = 0 | 1504.2 | 1490.7 | 1476.6 | 1461.9 | 1447.5 | 1433.3 | – | 1405.6 | 1391.1
x2 = 0.05 | 1506.6 | 1493.5 | 1478.6 | 1464 | 1449.1 | 1434.5 | 1420.4 | 1406.6 | 1392.6
x2 = 0.0978 | 1509.6 | 1495.7 | – | 1466.8 | 1451.7 | 1436.1 | – | 1407.6 | 1393.3
x2 = 0.1978 | – | – | 1485.6 | – | – | 1439.8 | 1424.3 | – | 1395.1
x2 = 0.3095 | – | 1506.4 | 1491.6 | 1474.8 | 1459.3 | – | 1428 | 1413.1 | 1397.7
x2 = 0.3891 | 1527.5 | 1511.4 | 1495.3 | 1479 | 1462.8 | 1446.7 | 1430.3 | 1414.7 | 1399.2
x2 = 0.4931 | – | 1517 | 1500.3 | – | – | – | 1433.2 | 1417.5 | –
x2 = 0.599 | 1539.9 | 1521.9 | 1505.3 | 1488.3 | 1471.5 | – | 1436.8 | 1420.2 | 1402.8
x2 = 0.7001 | 1545.8 | 1527.3 | 1510 | 1492 | 1474.8 | 1457.5 | 1439.8 | 1422.2 | 1405.1
x2 = 0.7998 | 1552.5 | – | – | 1497.2 | 1478.8 | 1461.4 | – | 1424.9 | 1407.8
x2 = 0.891 | – | 1538.6 | 1519.6 | 1501.1 | 1482.7 | 1463.9 | – | – | 1409

CCC[NH3+].O=C[O-] + O
speed of sound [m/s]
Conditions | 293.15 K | 298.15 K | 303.15 K | 308.15 K | 313.15 K | 318.15 K | 323.15 K | 328.15 K | 333.15 K
x2 = 0 | 1552 | 1540.7 | 1530.2 | – | 1509.5 | 1499.2 | 1489.1 | 1479 | 1469
x2 = 0.0505 | 1557.1 | 1546.6 | 1536.1 | 1525.7 | 1515.4 | – | 1495.1 | 1485 | 1474.9
x2 = 0.1036 | 1565.1 | 1554.7 | 1544.2 | 1533.9 | 1523.7 | 1513.5 | 1503.4 | 1493.4 | 1483.2
x2 = 0.2456 | 1588.7 | 1578.5 | 1568.5 | – | 1548.1 | 1538 | 1528 | – | –
x2 = 0.2838 | – | 1585.9 | 1575.7 | 1565.6 | – | 1545.4 | – | 1525.4 | –
x2 = 0.429 | 1615.5 | 1605.7 | – | – | 1575.8 | 1566 | 1556 | 1546.1 | 1536
x2 = 0.5184 | 1632.4 | – | 1612.8 | 1603 | 1593 | 1583.1 | 1573.2 | 1563.3 | –
x2 = 0.6064 | – | – | 1635.4 | 1625.7 | 1616 | 1606.2 | 1596.4 | – | 1576.6
x2 = 0.6994 | 1687.5 | 1678.4 | 1669.2 | 1659.9 | 1650.5 | 1641 | 1631.5 | 1621.8 | 1611.9
x2 = 0.8008 | 1727.2 | 1719.4 | 1711.3 | – | 1694.3 | – | 1676.4 | 1666.8 | 1657.3
x2 = 0.9026 | 1730 | 1725.8 | – | 1716.1 | 1710.7 | 1704.7 | 1698.3 | 1691.5 | 1684.3
